Patent US12077503B2, “Substituted cyclic amides and their use as herbicides” (FMC CORPORATION, priority 2015, dated 2024)

Key:
Type in all cases: in vivo
[1] = test system: velvetleaf (Abutilon theophrasti); test: Test G Pre-Emergence Protocol; conditions: Abutilon theophrasti, pre-emergence, 312 h, evaluated after 13 days; for pest or weed control at 15.625 g/ha: 15.625 g ai/ha; for pest or weed control at 15.625 g/ha / pest or weed control at 250 g/ha: read-out: Velvetleaf damage rating (100=total damage to plant; 0=no damage to plant); for pest or weed control at 62.5 g/ha: 62.5 g ai/ha, 100=total damage to plant, 0=no damage to plant, read-out: plant damage rating, Velvetleaf; for pest or weed control at 250 g/ha: 250 g ai/ha
In short: (§1)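 Scores are visual damage ratings from 0 (no damage) to 100 (total plant kill), taken 13 days after treatment. Compound was sprayed one day post-sowing at 15.625, 62.5 or 250 g/ha in 50:50 acetone/water with 0.5% Tween 20.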

[2] = test system: barnyardgrass (Echinochloa crus-galli); test: Test G Pre-Emergence Protocol; conditions: Echinochloa crus-galli, pre-emergence, 312 h, evaluated after 13 days; for pest or weed control at 15.625 g/ha: 15.625 g ai/ha, read-out: Barnyard grass damage rating (100=total damage to plant; 0=no damage to plant); for pest or weed control at 62.5 g/ha: 62.5 g ai/ha, 100=total damage to plant, 0=no damage to plant, read-out: plant damage rating, Barnyardgrass; for pest or weed control at 250 g/ha: 250 g ai/ha, read-out: Barnyardgrass damage rating (100=total damage to plant; 0=no damage to plant)
In short: as §1

corn (Zea mays) [3] = test: Test G Pre-Emergence Protocol; conditions: Zea mays, pre-emergence, 312 h, evaluated after 13 days; for plant injury at 15.625 g/ha: 15.625 g ai/ha; for plant injury at 15.625 g/ha / plant injury at 250 g/ha: read-out: Corn damage rating (100=total damage to plant; 0=no damage to plant); for plant injury at 62.5 g/ha: 62.5 g ai/ha, 100=total damage to plant, 0=no damage to plant, read-out: plant damage rating, Corn; for plant injury at 250 g/ha: 250 g ai/ha
In short: as §1

[4] = test system: giant foxtail (Setaria faberi); test: Test G Pre-Emergence Protocol; conditions: Setaria faberi, pre-emergence, 312 h, evaluated after 13 days; for pest or weed control at 15.625 g/ha: 15.625 g ai/ha; for pest or weed control at 15.625 g/ha / pest or weed control at 250 g/ha: read-out: Foxtail, Giant damage rating (100=total damage to plant; 0=no damage to plant); for pest or weed control at 62.5 g/ha: 62.5 g ai/ha, 100=total damage to plant, 0=no damage to plant, read-out: plant damage rating, Foxtail, Giant; for pest or weed control at 250 g/ha: 250 g ai/ha
In short: as §1

[5] = test system: ivy-leaved morning glory (Ipomoea hederacea); test: Test G Pre-Emergence Protocol; conditions: Ipomoea, pre-emergence, 312 h, evaluated after 13 days; for pest or weed control at 15.625 g/ha: 15.625 g ai/ha, read-out: Morning-glory, Ivy-leaved damage rating (100=total damage to plant; 0=no damage to plant); for pest or weed control at 62.5 g/ha: 62.5 g ai/ha, 100=total damage to plant, 0=no damage to plant, read-out: plant damage rating, Morningglory, Ivy-leaved; for pest or weed control at 250 g/ha: 250 g ai/ha, read-out: Morningglory, Ivy-leaved damage rating (100=total damage to plant; 0=no damage to plant)
In short: as §1

[6] = test system: redroot pigweed (Amaranthus retroflexus); test: Test G Pre-Emergence Protocol; conditions: Amaranthus retroflexus, pre-emergence, 312 h, evaluated after 13 days; for pest or weed control at 15.625 g/ha: 15.625 g ai/ha; for pest or weed control at 15.625 g/ha / pest or weed control at 250 g/ha: read-out: Pigweed, Redroot damage rating (100=total damage to plant; 0=no damage to plant); for pest or weed control at 62.5 g/ha: 62.5 g ai/ha, 100=total damage to plant, 0=no damage to plant, read-out: plant damage rating, Pigweed, Redroot; for pest or weed control at 250 g/ha: 250 g ai/ha
In short: as §1

[7] = test system: velvetleaf (Abutilon theophrasti); test: Test G Post-Emergence Protocol; conditions: Abutilon theophrasti, post-emergence, 312 h; for pest or weed control at 15.625 g/ha: 15.625 g ai/ha, evaluated after 13 days (100=total damage to plant; 0=no damage to plant), read-out: Velvetleaf damage rating; for pest or weed control at 62.5 g/ha: 62.5 g ai/ha, read-out: Velvetleaf damage rating (100=total damage to plant; 0=no damage to plant); for pest or weed control at 62.5 g/ha / pest or weed control at 250 g/ha: evaluated after 13 days; for pest or weed control at 250 g/ha: 250 g ai/ha, read-out: damage to plant, Velvetleaf (100=total damage to plant; 0=no damage to plant)
In short: (§2)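 Scores run 0 (no damage) to 100 (total damage) and were taken 13 days after spraying. Plants had been raised in pots for 8 days under glasshouse control (24/16 °C, 14 h photoperiod, 65% humidity) and then treated at 15.625, 62.5 or 250 g/ha.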

[8] = test system: barnyardgrass (Echinochloa crus-galli); test: Test G Post-Emergence Protocol; conditions: Echinochloa crus-galli, post-emergence, 312 h; for pest or weed control at 15.625 g/ha: 15.625 g ai/ha, evaluated after 13 days (100=total damage to plant; 0=no damage to plant), read-out: Barnyardgrass damage rating; for pest or weed control at 62.5 g/ha: 62.5 g ai/ha, read-out: Barnyardgrass damage rating (100=total damage to plant; 0=no damage to plant); for pest or weed control at 62.5 g/ha / pest or weed control at 250 g/ha: evaluated after 13 days; for pest or weed control at 250 g/ha: 250 g ai/ha, read-out: damage to plant, Barnyardgrass (100=total damage to plant; 0=no damage to plant)
In short: as §2

corn (Zea mays) [9] = test: Test G Post-Emergence Protocol; conditions: Zea mays, post-emergence, 312 h; for plant injury at 15.625 g/ha: 15.625 g ai/ha, evaluated after 13 days (100=total damage to plant; 0=no damage to plant), read-out: Corn damage rating; for plant injury at 62.5 g/ha: 62.5 g ai/ha, read-out: Corn damage rating (100=total damage to plant; 0=no damage to plant); for plant injury at 62.5 g/ha / plant injury at 250 g/ha: evaluated after 13 days; for plant injury at 250 g/ha: 250 g ai/ha, read-out: damage to plant, Corn (100=total damage to plant; 0=no damage to plant)
In short: as §2

[10] = test system: giant foxtail (Setaria faberi); test: Test G Post-Emergence Protocol; conditions: Setaria faberi, post-emergence, 312 h; for pest or weed control at 15.625 g/ha: 15.625 g ai/ha, evaluated after 13 days (100=total damage to plant; 0=no damage to plant), read-out: Foxtail, Giant damage rating; for pest or weed control at 62.5 g/ha: 62.5 g ai/ha, read-out: Foxtail, Giant damage rating (100=total damage to plant; 0=no damage to plant); for pest or weed control at 62.5 g/ha / pest or weed control at 250 g/ha: evaluated after 13 days; for pest or weed control at 250 g/ha: 250 g ai/ha, read-out: damage to plant, Foxtail, Giant (100=total damage to plant; 0=no damage to plant)
In short: as §2

[11] = test system: ivy-leaved morning glory (Ipomoea hederacea); test: Test G Post-Emergence Protocol; conditions: Ipomoea, post-emergence, 312 h; for pest or weed control at 15.625 g/ha: 15.625 g ai/ha, evaluated after 13 days (100=total damage to plant; 0=no damage to plant), read-out: Morningglory, Ivy-leaved damage rating; for pest or weed control at 62.5 g/ha: 62.5 g ai/ha, read-out: Morningglory, Ivy-leaved damage rating (100=total damage to plant; 0=no damage to plant); for pest or weed control at 62.5 g/ha / pest or weed control at 250 g/ha: evaluated after 13 days; for pest or weed control at 250 g/ha: 250 g ai/ha, read-out: damage to plant, Morningglory, Ivy-leaved (100=total damage to plant; 0=no damage to plant)
In short: as §2

[12] = test system: redroot pigweed (Amaranthus retroflexus); test: Test G Post-Emergence Protocol; conditions: Amaranthus retroflexus, post-emergence, 312 h; for pest or weed control at 15.625 g/ha: 15.625 g ai/ha, evaluated after 13 days (100=total damage to plant; 0=no damage to plant), read-out: Pigweed, Redroot damage rating; for pest or weed control at 62.5 g/ha: 62.5 g ai/ha, read-out: Pigweed, Redroot damage rating (100=total damage to plant; 0=no damage to plant); for pest or weed control at 62.5 g/ha / pest or weed control at 250 g/ha: evaluated after 13 days; for pest or weed control at 250 g/ha: 250 g ai/ha, read-out: damage to plant, Pigweed, Redroot (100=total damage to plant; 0=no damage to plant)
In short: as §2

Structure (SMILES)	pest or weed control at 15.625 g/ha [1]	pest or weed control at 62.5 g/ha [1]	pest or weed control at 250 g/ha [1]	pest or weed control at 15.625 g/ha [2]	pest or weed control at 62.5 g/ha [2]	pest or weed control at 250 g/ha [2]	plant injury at 15.625 g/ha (corn (Zea mays) [3])	plant injury at 62.5 g/ha (corn (Zea mays) [3])	plant injury at 250 g/ha (corn (Zea mays) [3])	pest or weed control at 15.625 g/ha [4]	pest or weed control at 62.5 g/ha [4]	pest or weed control at 250 g/ha [4]	pest or weed control at 15.625 g/ha [5]	pest or weed control at 62.5 g/ha [5]	pest or weed control at 250 g/ha [5]	pest or weed control at 15.625 g/ha [6]	pest or weed control at 62.5 g/ha [6]	pest or weed control at 250 g/ha [6]	pest or weed control at 15.625 g/ha [7]	pest or weed control at 62.5 g/ha [7]	other results
CN1C[C@@H](c2ccc(C(F)(F)F)cc2)[C@H](C(=O)Nc2cc(O)nc(C(F)(F)F)n2)C1=O (racemic) [Compound 1614]	0%	0%	70%	0%	0%	0%	0%	0%	0%	0%	0%	0%	0%	0%	0%	0%	0%	80%	0%	0%	pest or weed control at 250 g/ha [7]: 20%; pest or weed control at 15.625 g/ha [8]: 0%; pest or weed control at 62.5 g/ha [8]: 0%; pest or weed control at 250 g/ha [8]: 0%; plant injury at 15.625 g/ha (corn (Zea mays) [9]): 0%; plant injury at 62.5 g/ha (corn (Zea mays) [9]): 0%; plant injury at 250 g/ha (corn (Zea mays) [9]): 0%; pest or weed control at 15.625 g/ha [10]: 0%; pest or weed control at 62.5 g/ha [10]: 0%; pest or weed control at 250 g/ha [10]: 0%; pest or weed control at 15.625 g/ha [11]: 0%; pest or weed control at 62.5 g/ha [11]: 0%; pest or weed control at 250 g/ha [11]: 0%; pest or weed control at 15.625 g/ha [12]: 0%; pest or weed control at 62.5 g/ha [12]: 0%; pest or weed control at 250 g/ha [12]: 80%
CN1C[C@@H](c2ccc(C(F)(F)F)cc2)[C@H](C(=O)Nc2[nH]ncc2C#N)C1=O (racemic) [Compound 1551]	0%	0%	0%	0%	0%	0%	0%	0%	0%	0%	0%	0%	0%	0%	0%	0%	0%	0%	0%	0%	pest or weed control at 250 g/ha [7]: 0%; pest or weed control at 15.625 g/ha [8]: 0%; pest or weed control at 62.5 g/ha [8]: 0%; pest or weed control at 250 g/ha [8]: 0%; plant injury at 15.625 g/ha (corn (Zea mays) [9]): 0%; plant injury at 62.5 g/ha (corn (Zea mays) [9]): 0%; plant injury at 250 g/ha (corn (Zea mays) [9]): 10%; pest or weed control at 15.625 g/ha [10]: 0%; pest or weed control at 62.5 g/ha [10]: 0%; pest or weed control at 250 g/ha [10]: 0%; pest or weed control at 15.625 g/ha [11]: 0%; pest or weed control at 62.5 g/ha [11]: 0%; pest or weed control at 250 g/ha [11]: 0%; pest or weed control at 15.625 g/ha [12]: 0%; pest or weed control at 62.5 g/ha [12]: 0%; pest or weed control at 250 g/ha [12]: 0%
Cc1ccc(NC(=O)[C@H]2C(=O)N(C)C[C@@H]2c2ccc(C(F)(F)F)cc2)c(C)c1C (racemic) [Compound 1448]	0%	0%	0%	0%	0%	0%	0%	0%	0%	0%	20%	60%	0%	0%	0%	0%	0%	0%	0%	0%	pest or weed control at 250 g/ha [7]: 0%; pest or weed control at 15.625 g/ha [8]: 0%; pest or weed control at 62.5 g/ha [8]: 0%; pest or weed control at 250 g/ha [8]: 0%; plant injury at 15.625 g/ha (corn (Zea mays) [9]): 0%; plant injury at 62.5 g/ha (corn (Zea mays) [9]): 0%; plant injury at 250 g/ha (corn (Zea mays) [9]): 10%; pest or weed control at 15.625 g/ha [10]: 0%; pest or weed control at 62.5 g/ha [10]: 0%; pest or weed control at 250 g/ha [10]: 0%; pest or weed control at 15.625 g/ha [11]: 0%; pest or weed control at 62.5 g/ha [11]: 0%; pest or weed control at 250 g/ha [11]: 0%; pest or weed control at 15.625 g/ha [12]: 0%; pest or weed control at 62.5 g/ha [12]: 0%; pest or weed control at 250 g/ha [12]: 30%
